Data reported in paper PMC9266914, “Broad Spectrum Functional Activity of Structurally Related Monoanionic Au(III) Bis(Dithiolene) Complexes” (International Journal of Molecular Sciences, 2022).
Read-outs that look alike come from different tables or passages of the source. Marks after values point to notes of the source that are not given here.

Key:
[1] = system: A2780 ovarian cancer cells; test: MTT cytotoxicity assay in A2780 (cisplatin sensitive) ovarian cancer cells; assay type: cell-based, human
Description: (§1) Cells were exposed to increasing concentrations of the complexes (0.01–100 μM) for 24 and/or 48 h, at 37 °C. The IC50 values were calculated from dose–response curves using the colorimetric MTT assay. […] Most complexes presented a similar cytotoxicity profile compared to Auranofin, but higher activity compared to Cisplatin, and, most importantly, were active in the Cisplatin-resistant OVCAR8 cells (Table 2).
(§2) The cytotoxic activity of the complexes was evaluated in the A2780 (cisplatin sensitive) (Sigma-Aldrich) and OVCAR8 (cisplatin resistant) (ATCC) ovarian cancer cells. Cells were grown in RPMI-1640 medium (Gibco, Thermo Fisher) supplemented with 10% fetal bovine serum (FBS) and were maintained at 37 °C in a humidified atmosphere with 5% CO2. The complexes were initially dissolved in DMSO and then in culture medium to prepare serial dilutions in the range 10^−9–10^−4 M. After 24 and/or 48 h incubation the cellular viability was measured by the colorimetric MTT assay, as previously described.

[2] = system: OVCAR8 ovarian cancer cells; test: MTT cytotoxicity assay in OVCAR8 (cisplatin resistant) ovarian cancer cells; assay type: cell-based, human; conditions: 48 h incubation
Description: as §1, §2

C. albicans SC5134 = test: MIC determination, C. albicans; assay type: cell-based, Candida albicans; conditions: RPMIG, 24 h, 35 °C
From the text: (§3) The bacterial strains Escherichia coli ATCC25922 and Staphylococcus aureus Newman were used in this work and maintained in Lennox Broth (LB) solid medium, composed of 10 g/L tryptone, 5 g/L yeast extract, 5 g/L NaCl and 20 g/L agar. The fungal strains Candida albicans SC5134 and C. glabrata CBS138 were used in this work and maintained in YPD solid medium, composed of 20 g/L glucose, 20 g/L peptone, 10 g/L yeast extract and 15 g/L agar. The strains were isolated from human infections.
(§4) The antimicrobial activity of the complexes towards the bacterial and fungal strains was assessed by the determination of the Minimal Inhibitory Concentration (MIC) of each complex towards the indicated microbial strains, based on standard methods, and as previously described. […] Serial 1:2 dilutions of stock solutions were prepared for each complex in Mueller–Hinton (MH) broth (Fluka Analytical) or RPMI-1640 medium (Sigma) supplemented with 20 g/L glucose and buffered with 0.165 M morpholinepropanesulphonic acid (RPMIG) to pH 7.0. Solutions prepared with MH were used for testing bacteria, while those prepared with RPMIG were used for testing fungi. For antibacterial activity assays, the final concentrations ranged from 250 to 0.24 μg/mL (when stock solution final concentration was 10 mg/mL), 125 μg/mL to 0.12 μg/mL (when stock solution final concentration was 5 mg/mL) and 62.5 to 0.06 μg/mL (when stock solution final concentration was 2.5 mg/mL). For antifungal assays, the final concentrations ranged from 125 μg/mL to 0.12 μg/mL (when stock solution final concentration was 10 mg/mL), 62.5 to 0.06 μg/mL (when stock solution final concentration was 5 mg/mL) and 31.25 to 0.03 μg/mL (when stock solution final concentration was 2.5 mg/mL). Then, 100 μL aliquots of adequately diluted bacterial suspensions of S. aureus Newman or E. coli ATCC 25922 were mixed with the MH serially diluted complexes aliquots to obtain 5 × 10^5 CFU/mL. In the case of fungi, cultures were diluted to obtain a final optical density of 0.025, measured at 530 nm (OD530). Bacterial suspensions were prepared from cultures grown for 5 h in MH broth at 37 °C and 250 rev·min^−1 and adequately diluted with fresh MH medium, while fungal suspensions were prepared from overnight cultures grown in YPD broth at 30 °C and 250 rev.min^−1 and diluted in buffered RPMIG. After 22 h of incubation at 37 °C (bacteria) or 24 h at 35 °C (fungi), the wells’ content was resuspended by pipetting and the OD640 (bacteria) or OD530 (fungi) were measured in a SPECTROstar Nano microplate reader (BMG Labtech).
(§5) At least three independent experiments were performed in duplicate for each complex under study. […] Positive (no complex) and negative controls (no inoculum) were performed for each experiment. The effect of 5% (V/V) DMSO on microbial growth was also assessed.

C. glabrata CBS138 = test: MIC determination, C. glabrata; assay type: cell-based, Candida glabrata; conditions: RPMIG, 24 h, 35 °C
From the text: as §3, §4, §5

S. aureus Newman = test: MIC determination, S. aureus; assay type: cell-based, Staphylococcus aureus; conditions: MH broth, 22 h, 37 °C
From the text: as §3, §4, §5

E. coli ATCC25922 = test: MIC determination, E. coli; assay type: cell-based, Escherichia coli; conditions: MH broth, 22 h, 37 °C
From the text: as §3, §4, §5

Cyclic voltammetry = assay type: physicochemical; conditions: for E1/2 −1/0, first value of cell (anodic peak) / E1/2 −1/0, second value of cell (cathodic peak) / E −2/−1 (reduction of monoanion into dianion) / Epa2 0/+1 / Epc2 0/+1: CH2Cl2, NBu4PF6, Pt, 100 mV.s^−1; for potential difference between the second and the first oxidation potentials: CH2Cl2, NBu4PF6
From the text: The redox properties of the various gold(III) bis(dithiolene) and bis(diselenolene) complexes were investigated by cyclic voltammetry using the same conditions, dichloromethane solutions and NBu4PF6 as supporting electrolyte. Under these conditions, the nature of the counter-ion, Ph4P^+ or Et4N^+, had no influence on the redox properties observed, due to ion exchange with the Bu4N^+ of the supporting electrolyte. Thus, only the result of one monoanion is included in Table 1, even if the two salts were analyzed. For all the investigated monoanionic bis(dithiolene) complexes, three redox processes are observed on the cyclic voltammograms. On the anodic scan, the two oxidation waves correspond to the oxidation of the monoanionic species into the neutral and to the monocationic complex. Most of these complexes had the tendency to deposit on the electrode once oxidized and frequently a strong desorption peak was observed on the reversible scan. This phenomenon occurs essentially for the complex with an exocyclic sulfur atom, [AuSR(=S)]^−1. On the cathodic scan, an irreversible process associated with the reduction in the monoanion into the dianion occurs (Scheme 2). […] The presence of oxygen instead of sulfur makes the oxidation of the monoanionic into the neutral species easier. On the other hand, the presence of electron-withdrawing substituents such as =C(CN)2 induces an anodic shift of the oxidation potentials by 300 mV, compared with the =O derivative, leading to a monoanion which is more difficult to oxidize than the other complexes of the series. […] Indeed, the potential difference between the second and the first oxidation potentials amounts to 470 mV and 410 mV for the =O and the =C(CN)2 derivatives, respectively, while for the =S analogues this value is smaller (170 mV). […] For comparison, we also investigated the redox behavior of Auranofin using the same experimental conditions in CH2Cl2 in the presence of NBu4PF6 as a supporting electrolyte. Using these conditions, upon anodic scan only one irreversible oxidation process is observed at 1.42 V vs. SCE. Therefore, all these monoanionic gold bis(dithiolene) and bis(diselenolene) complexes are easier to oxidize than Auranofin.
All reagents and materials from commercial sources were used without further purification. NMR spectra were recorded at room temperature using CDCl3 unless otherwise stated (Figures S7–S15). Chemical shifts are reported in ppm and ^1H NMR spectra were referenced to residual CHCl3 (7.26 ppm) and ^13C NMR spectra were referenced to CHCl3 (77.2 ppm). Mass spectra were recorded with an Agilent 6510 instrument for organics compounds and with a Thermo-Fisher Q-Exactive instrument for complexes by the Center Régional de Mesures Physiques de l’Ouest, Rennes. Cyclic voltammograms (CV)s were carried out on a 10^−3 M solution of complex in CH2Cl2-[NBu4] [PF6] 0.1 M. CVs were recorded on a Biologic SP-50 instruments at 0.1 Vs^−1 on a platinum disk electrode. Potentials were measured versus KCl Saturated Calomel Electrode (SCE). Column chromatography was performed using silica gel Merck 60 (70–260 mesh). The solvents were purified and dried by standard methods. The proligand 2-SEt(=C(CN2)), [72] and complexes [N][AuSMe(=S)], [73] [N][AuSEt(=S)], [74] [P][AuSEt(=O)], [75] [N][AuSeEt(=S)] [75] and [P][AuSPr(=S)] [76] were synthesized according to the previously reported procedure.

[3] = 24 h incubation, read-out: IC50 A2780, 24 h
[4] = 48 h incubation, read-out: IC50 A2780, 48 h

Row | SMILES | E1/2 −1/0, first value of cell (anodic peak) (Cyclic voltammetry) | E1/2 −1/0, second value of cell (cathodic peak) (Cyclic voltammetry) [V vs. SCE] | E −2/−1 (reduction of monoanion into dianion) (Cyclic voltammetry) | Epa2 0/+1 (Cyclic voltammetry) | Epc2 0/+1 (Cyclic voltammetry) [V vs. SCE] | also measured
1 | CC[N+](CC)(CC)CC.CCn1c2c(sc1=[Se])[Se][Au-]1([Se]c3sc(=[Se])n(CC)c3[Se]1)[Se]2 [[N][AuSeEt(=Se)]] |  |  |  |  |  | IC50 [1, 3]: 26.9 ± 3.02 µM; IC50 [1, 4]: 4.84 ± 1.6 µM; IC50 [2]: 13.9 ± 1.61 µM; MIC C. albicans SC5134 (C. albicans SC5134): >31.25 µg/mL; MIC C. glabrata CBS138 (C. glabrata CBS138): 1.8 ± 0.5 µg/mL; MIC S. aureus Newman (S. aureus Newman): >62.5 µg/mL; MIC E. coli ATCC25922 (E. coli ATCC25922): >62.5 µg/mL
2 | Cn1c2c(sc1=S)[S][Au-]1([S]c3sc(=S)n(C)c3[S]1)[S]2 [[AuSMe(=S)]^−1] | 0.51 V vs. SCE | 0.44 | −0.85 V vs. SCE | 0.73 V vs. SCE | 0.56 | 
3 | CCn1c2c(sc1=[Se])[Se][Au-]1([Se]c3sc(=[Se])n(CC)c3[Se]1)[Se]2 [[AuSeEt(=Se)]^−1] | 0.43/− ** V vs. SCE |  | −0.84 ** V vs. SCE |  |  | 
4 | CCN1C(=C(C#N)C#N)SC2=C1[S][Au-]1([S]2)[S]C2=C([S]1)N(CC)C(=C(C#N)C#N)S2 [[AuSEt(=C(CN)2)]^−1] | 0.71 V vs. SCE | 0.66 |  | 1.13 V vs. SCE | 1.06 | potential difference between the second and the first oxidation potentials (Cyclic voltammetry): 410 mV
5 | CCn1c2c(sc1=S)[Se][Au-]1([Se]c3sc(=S)n(CC)c3[Se]1)[Se]2 [[AuSeEt(=S)]^−1] | 0.52/− ** V vs. SCE |  | −0.89 ** V vs. SCE |  |  | 
6 | CCCn1c2c(sc1=S)[Se][Au-]1([Se]c3sc(=S)n(CCC)c3[Se]1)[Se]2 [[AuSePr(=S)]^−1] | 0.54/− ** V vs. SCE |  | −0.90 V vs. SCE | 0.95/− V vs. SCE |  | 
7 | CCCn1c2c(sc1=S)[S][Au-]1([S]c3sc(=S)n(CCC)c3[S]1)[S]2.CC[N+](CC)(CC)CC [[N][AuSPr(=S)]] |  |  |  |  |  | IC50 [1, 3]: 2.93 ± 0.81 µM; IC50 [1, 4]: 2.28 ± 0.69 µM; IC50 [2]: 2.28 ± 0.19 µM; MIC C. albicans SC5134 (C. albicans SC5134): 3.1 µg/mL; MIC C. albicans SC5134 (C. albicans SC5134; listed as [ N ][AuSPr(=S)]): 3.1 ± 0.5 µg/mL; MIC C. glabrata CBS138 (C. glabrata CBS138): 1.6 ± 0.8 µg/mL; MIC S. aureus Newman (S. aureus Newman): 1.1 ± 0.2 µg/mL; MIC E. coli ATCC25922 (E. coli ATCC25922): >250 µg/mL
8 | CCn1c2c(sc1=[Se])[S][Au-]1([S]c3sc(=[Se])n(CC)c3[S]1)[S]2 [[AuSEt(=Se)]^−1] | 0.40/− ** V vs. SCE |  | −0.80 ** V vs. SCE |  |  | 
9 | CCCn1c2c(sc1=S)[S][Au-]1([S]c3sc(=S)n(CCC)c3[S]1)[S]2 [[AuSPr(=S)]^−1] | 0.56 V vs. SCE | 0.53 | −0.85 ** V vs. SCE | 0.73 V vs. SCE | 0.64 | 
10 | CC(C)n1c2c(sc1=S)[Se][Au-]1([Se]c3sc(=S)n(C(C)C)c3[Se]1)[Se]2.CC[N+](CC)(CC)CC [[N][AuSeiPr(=S)]] |  |  |  |  |  | IC50 [1, 3]: 30.3 ± 3.39 µM; IC50 [1, 4]: 8.27 ± 1.12 µM; IC50 [2]: 8.76 ± 0.69 µM; MIC C. albicans SC5134 (C. albicans SC5134): >125 µg/mL; MIC C. glabrata CBS138 (C. glabrata CBS138): 2.1 ± 0.1 µg/mL; MIC S. aureus Newman (S. aureus Newman): 1.5 ± 0.1 µg/mL; MIC E. coli ATCC25922 (E. coli ATCC25922): >250 µg/mL
11 | CC(C)n1c2c(sc1=S)[Se][Au-]1([Se]c3sc(=S)n(C(C)C)c3[Se]1)[Se]2 [[AuSeiPr(=S)]^−1] | 0.62 V vs. SCE | 0.57 | −0.94 V vs. SCE | 0.75/− V vs. SCE |  | 
12 | CCn1c2c(sc1=S)[S][Au-]1([S]c3sc(=S)n(CC)c3[S]1)[S]2 [[AuSEt(=S)]^−1] | 0.55 V vs. SCE | 0.49 | −0.90 V vs. SCE | 0.71 V vs. SCE | 0.61 | 
13 | CCCCn1c2c(sc1=S)[S][Au-]1([S]c3sc(=S)n(CCCC)c3[S]1)[S]2 [[AuSBu(=S)]^−1] | 0.55 V vs. SCE | 0.50 | −0.88 ** V vs. SCE | 0.75 V vs. SCE | 0.66 | 
14 | CCn1c2c(sc1=O)[S][Au-]1([S]c3sc(=O)n(CC)c3[S]1)[S]2 [[AuSEt(=O)]^−1] | 0.42 V vs. SCE | 0.36 | −1.05 ** V vs. SCE | 0.89 V vs. SCE | 0.83 | potential difference between the second and the first oxidation potentials (Cyclic voltammetry): 470 mV
15 | CCCn1c2c(sc1=[Se])[S][Au-]1([S]c3sc(=[Se])n(CCC)c3[S]1)[S]2 [[AuSPr(=Se)]^−1] | 0.45/− ** V vs. SCE |  | −0.84 ** V vs. SCE |  |  | 
